Values quoted from earlier work as cited in patent US6485765B1, “Lactational performance of dairy cattle” (Church & Dwight Co., Inc., priority 2000, dated 2002).

Tested on: heat stressed dairy cows
Conditions: per every 1% increase in K, potassium carbonate as source of dietary K

## O=C([O-])[O-].[K+].[K+] [potassium carbonate]
  increase of fat-corrected milk: 8.9 lbs/day
